# Test results as given in paper PMC9779606, “Synthesis, Structural Characterization and Biological Activity Evaluation of Novel Cu(II) Complexes with 3-(trifluoromethyl)phenylthiourea Derivatives” (International Journal of Molecular Sciences, 2022).
# How the values were obtained:
# S. aureus NCTC 4163 = test: MIC, twofold serial microdilution, standard strains; conditions: S. aureus NCTC 4163, standard strain
# S. aureus 585 = test: MIC, hospital methicillin-resistant strains (MRSA); conditions: hospital MRSA strain S. aureus 585
# [1] = system: M. tuberculosis Spec. 192; test: Tuberculostatic activity, Microplate Alamar Blue Assay (MABA); format: cell-based, Mycobacterium tuberculosis; conditions: M. tuberculosis Spec. 192, patient isolate fully sensitive to tuberculostatics, MABA
# [2] = system: HaCaT (immortalized human keratinocytes); test: Cytotoxicity, MTT assay; format: cell-based; conditions: normal cells, 72 h, mean SD
# Procedure: MTT assay was performed as previously described. Experiments were repeated three times. […] Decreased relative MTT level means decreased cell viability.
# S. epidermidis 435 = test: MIC, hospital methicillin-resistant strains (MRSE); conditions: hospital MRSE strain S. epidermidis 435
# S. aureus 495 = test: MIC, hospital methicillin-resistant strains (MRSA); conditions: hospital MRSA strain S. aureus 495
# S. epidermidis 420 = test: MIC, hospital methicillin-resistant strains (MRSE); conditions: hospital MRSE strain S. epidermidis 420
# S. epidermidis 438 = test: MIC, hospital methicillin-resistant strains (MRSE); conditions: hospital MRSE strain S. epidermidis 438
# M. tuberculosis H37Rv = test: Tuberculostatic activity, Microplate Alamar Blue Assay (MABA); format: cell-based, Mycobacterium tuberculosis; conditions: M. tuberculosis H37Rv, standard strain, MABA
# S. aureus 586 = test: MIC, hospital methicillin-resistant strains (MRSA); conditions: hospital MRSA strain S. aureus 586
# [3] = system: S. epidermidis ATCC 35984; test: MIC, twofold serial microdilution, standard strains; conditions: S. epidermidis ATCC 35984, standard strain
# S. epidermidis 423 = test: MIC, hospital methicillin-resistant strains (MRSE); conditions: hospital MRSE strain S. epidermidis 423
# S. aureus 567 = test: MIC, hospital methicillin-resistant strains (MRSA); conditions: hospital MRSA strain S. aureus 567
# S. epidermidis 437 = test: MIC, hospital methicillin-resistant strains (MRSE); conditions: hospital MRSE strain S. epidermidis 437
# S. epidermidis 432 = test: MIC, hospital methicillin-resistant strains (MRSE); conditions: hospital MRSE strain S. epidermidis 432
# S. aureus ATCC 6538 = test: MIC, twofold serial microdilution, standard strains; conditions: S. aureus ATCC 6538, standard strain
# S. aureus 572 = test: MIC, hospital methicillin-resistant strains (MRSA); conditions: hospital MRSA strain S. aureus 572
# S. aureus 514 = test: MIC, hospital methicillin-resistant strains (MRSA); conditions: hospital MRSA strain S. aureus 514
# S. epidermidis 515 = test: MIC, hospital methicillin-resistant strains (MRSE); conditions: hospital MRSE strain S. epidermidis 515
# S. aureus 537 = test: MIC, hospital methicillin-resistant strains (MRSA); conditions: hospital MRSA strain S. aureus 537
# S. epidermidis 424 = test: MIC, hospital methicillin-resistant strains (MRSE); conditions: hospital MRSE strain S. epidermidis 424
# S. epidermidis 433 = test: MIC, hospital methicillin-resistant strains (MRSE); conditions: hospital MRSE strain S. epidermidis 433
# [4] = system: Bacillus subtilis M45 (rec−); conditions: B. subtilis M45 (rec−); 256 µg per 9 mm disc (NOQ 2 µg per disc)
# Procedure: (§1) DNA-damaging activity of compounds was tested by rec-assay using two genetically modified Bacillus subtilis strains: M45 (rec^−) and H17 (rec^+). Tested compounds were dissolved in DMSO, and 10 µL of each solution was dripped onto sterile cotton discs (Rotilabo) to load 256 µg of a given compound per 9 mm disc. Discs were placed on the surface Nutrient agar plates (Difco) inoculated with 100 µL of bacterial overnight culture and incubated for 24 h at 35 °C. After incubation, the growth inhibition zones were measured. […] Results of the genotoxicity test were estimated after 18 h of incubation at 35 °C by comparing the diameter of the inhibition zone on the B. subtilis M45 (rec^−) strain with that on the B. subtilis H17 (rec^+) strain.
# [5] = system: Bacillus subtilis H17 (rec+); conditions: B. subtilis H17 (rec+); 256 µg per 9 mm disc (NOQ 2 µg per disc)
# Procedure: as §1
# S. epidermidis 513 = test: MIC, hospital methicillin-resistant strains (MRSE); conditions: hospital MRSE strain S. epidermidis 513
# S. aureus ATCC 29213 = test: MIC, twofold serial microdilution, standard strains; conditions: S. aureus ATCC 29213, standard strain
# S. aureus 481 = test: MIC, hospital methicillin-resistant strains (MRSA); conditions: hospital MRSA strain S. aureus 481
# S. aureus 498 = test: MIC, hospital methicillin-resistant strains (MRSA); conditions: hospital MRSA strain S. aureus 498
# S. epidermidis 469 = test: MIC, hospital methicillin-resistant strains (MRSE); conditions: hospital MRSE strain S. epidermidis 469
# P. aeruginosa ATCC 15442 = test: MIC, twofold serial microdilution, standard strains; conditions: P. aeruginosa ATCC 15442, standard strain
# [6] = system: S. epidermidis ATCC 12228; test: as above; conditions: S. epidermidis ATCC 12228, standard strain
Compound,MIC (S. aureus NCTC 4163) [µg/mL],MIC (S. aureus 585) [µg/mL],MIC [1] [µg/mL],IC50 [2] [µM],MIC (S. epidermidis 435) [µg/mL],MIC (S. aureus 495) [µg/mL],MIC (S. epidermidis 420) [µg/mL],MIC (S. epidermidis 438) [µg/mL],MIC (M. tuberculosis H37Rv) [µg/mL],MIC (S. aureus 586) [µg/mL],MIC [3] [µg/mL],MIC (S. epidermidis 423) [µg/mL],MIC (S. aureus 567) [µg/mL],MIC (S. epidermidis 437) [µg/mL],MIC (S. epidermidis 432) [µg/mL],MIC (S. aureus ATCC 6538) [µg/mL],MIC (S. aureus 572) [µg/mL],MIC (S. aureus 514) [µg/mL],MIC (S. epidermidis 515) [µg/mL],MIC (S. aureus 537) [µg/mL],also measured
"FC(F)(F)c1cccc([N-]C(=S)Nc2cccc(Br)c2)c1.FC(F)(F)c1cccc([N-]C(=S)Nc2cccc(Br)c2)c1.[Cu+2] [Cu4, Copper(II) Complex with 1-(3-bromophenyl)-3-[3-(trifluoromethyl)phenyl] thiourea]",8,8,4,388 ± 4.4,8,8,8,8,4,8,8,8,8,8,8,4,8,8,8,8,"MIC (S. epidermidis 424): 8 µg/mL; MIC (S. epidermidis 433): 8 µg/mL; Genotoxic activity, inhibition zone diameter, M45 [4]: 17 mm; Genotoxic activity, inhibition zone diameter, H17 [5]: 15 mm; MIC (S. epidermidis 513): 8 µg/mL; MIC (S. aureus ATCC 29213): 8 µg/mL; MIC (S. aureus 481): 8 µg/mL; MIC (S. aureus 498): 8 µg/mL; MIC (S. epidermidis 469): 8 µg/mL; MIC (P. aeruginosa ATCC 15442): ≥256 µg/mL; MIC [6]: 8 µg/mL"
"O.O=[N+]([O-])c1cc(NC(=S)[N-]c2cccc(C(F)(F)F)c2)ccc1Cl.O=[N+]([O-])c1cc(NC(=S)[N-]c2cccc(C(F)(F)F)c2)ccc1Cl.[Cu+2] [Cu5, Copper(II) Complex with 1-(4-chloro-3-nitrophenyl)-3-[3-(trifluoromethyl)phenyl]thiourea]",4,4,4,134 ± 2.9,2,2,4,2,4,4,4,4,2,2,2,4,2,2,4,4,"MIC (S. epidermidis 424): 4 µg/mL; MIC (S. epidermidis 433): 2 µg/mL; Genotoxic activity, inhibition zone diameter, M45 [4]: 17 mm; Genotoxic activity, inhibition zone diameter, H17 [5]: 18 mm; MIC (S. epidermidis 513): 2 µg/mL; MIC (S. aureus ATCC 29213): 4 µg/mL; MIC (S. aureus 481): 2 µg/mL; MIC (S. aureus 498): 2 µg/mL; MIC (S. epidermidis 469): 4 µg/mL; MIC (P. aeruginosa ATCC 15442): 128 µg/mL; MIC [6]: 4 µg/mL"
